Assay: Preliminary pharmacokinetic characteristic evaluation
Type: in vivo, cynomolgus monkeys
Settings: for half-life: cynomolgus monkey, sc, male cynomolgus monkeys, administered subcutaneously at 0.2 mg/kg, plasma, LC-MS; for half-lives: cynomolgus monkeys, administered subcutaneously
Experimental: Among the above compounds, the principle of modification for long-acting was essentially the same.
The test animals were male cynomolgus monkeys. Two animals were used for each compound. The compounds were administered subcutaneously at a dose of 0.2 mg/kg. Blood samples were collected via intravenous sampling prior to administration (0 h) and at 1 h, 2 h, 3 h, 4 h, 8 h, 12 h, 18 h, 24 h, 48 h, 96 h, 144 h, and 168 h after administration. Plasma samples were obtained by centrifugation. The plasma concentrations of the compounds were respectively determined by liquid chromatography - mass spectrometry (LC-MS).

Row | SMILES | half-life | half-lives
1 | CC[C@H](C)[C@H](NC(=O)[C@H](Cc1ccccc1)NC(=O)[C@H](C)NC(=O)C(C)(C)NC(=O)[C@H](CCC(N)=O)NC(=O)[C@H](C)NC(=O)[C@H](CCCCNC(=O)COCCOCCNC(=O)CCC[C@H](NC(=O)CCCCCCCCCCCCCCCCCCC(=O)O)C(=O)O)NC(=O)[C@H](CCCCN)NC(=O)[C@H](CC(=O)O)NC(=O)[C@H](CC(C)C)NC(=O)C(C)(CC(C)C)NC(=O)[C@@H](NC(=O)[C@H](CO)NC(=O)[C@H](Cc1ccc(O)cc1)NC(=O)[C@H](CC(=O)O)NC(=O)[C@H](CO)NC(=O)[C@@H](NC(=O)C(C)(Cc1ccccc1)NC(=O)[C@@H](NC(=O)CNC(=O)[C@H](CCC(N)=O)NC(=O)C(C)(C)NC(=O)[C@@H](N)Cc1ccc(O)cc1)[C@@H](C)O)[C@@H](C)O)[C@@H](C)CC)C(=O)N[C@@H](CCC(=O)O)C(=O)N[C@@H](Cc1ccc(O)cc1)C(=O)N[C@@H](CC(C)C)C(=O)N[C@@H](CC(C)C)C(=O)N[C@@H](CCC(=O)O)C(=O)NCC(=O)NCC(=O)N1CCC[C@H]1C(=O)N[C@@H](CO)C(=O)N[C@@H](CO)C(=O)NCC(=O)N[C@@H](C)C(=O)N1CCC[C@H]1C(=O)N1CCC[C@H]1C(=O)N1CCC[C@H]1C(=O)N[C@@H](CO)C(N)=O (stereo partly shown) [Compound 2] | 83.5 h | greater than 80 hours
2 | CC[C@H](C)[C@H](NC(=O)[C@H](Cc1ccccc1)NC(=O)[C@H](C)NC(=O)C(C)(C)NC(=O)[C@H](CCC(N)=O)NC(=O)[C@H](C)NC(=O)[C@H](CCCCNC(=O)COCCOCCNC(=O)CCC[C@H](NC(=O)CCCCCCCCCCCCCCCCCCC(=O)O)C(=O)O)NC(=O)[C@H](CCCCN)NC(=O)[C@H](CC(=O)O)NC(=O)[C@H](CC(C)C)NC(=O)C(C)(CC(C)C)NC(=O)[C@@H](NC(=O)[C@H](CO)NC(=O)[C@H](Cc1ccc(O)cc1)NC(=O)[C@H](CC(=O)O)NC(=O)[C@H](CO)NC(=O)[C@@H](NC(=O)C(C)(Cc1ccccc1F)NC(=O)[C@@H](NC(=O)CNC(=O)[C@H](CCC(N)=O)NC(=O)C(C)(C)NC(=O)[C@@H](N)Cc1ccc(O)cc1)[C@@H](C)O)[C@@H](C)O)[C@@H](C)CC)C(=O)N[C@@H](CCC(=O)O)C(=O)N[C@@H](Cc1ccc(O)cc1)C(=O)N[C@@H](CC(C)C)C(=O)N[C@@H](CC(C)C)C(=O)N[C@@H](CCC(=O)O)C(=O)NCC(=O)NCC(=O)N1CCC[C@H]1C(=O)N[C@@H](CO)C(=O)N[C@@H](CO)C(=O)NCC(=O)N[C@@H](C)C(=O)N1CCC[C@H]1C(=O)N1CCC[C@H]1C(=O)N1CCC[C@H]1C(=O)N[C@@H](CO)C(N)=O (stereo partly shown) [Compound 6] | 94.7 h | greater than 80 hours

From EP4806911A1, “TRIPLE AGONIST COMPOUND” (Chengdu Aoda Biotechnology Co., Ltd, priority 2023, dated 2025)
